Reference: US9399646B2 (Genentech, Inc., priority 2010, dated 2016)

Columns and labels:
MCF-7 cells = test: Breast cancer cell viability assay (CellTiter-Glo, 5 days); assay type: cell-based; conditions: 5 days' compound exposure; for IC50: Homo sapiens, MCF7, 120 h
Procedure: MCF-7 cells were adjusted to a concentration of 20,000 cells per mL in RPMI containing 10% FBS and 20 mM HEPES. 16 microliters of the cell suspension (320 cells) was added to each well of a 384 well plate, and the cells were incubated overnight to allow the cells to adhere. The following day an eleven point, serial semilog dilution of each compound was added to the cells in 16 μL at a final concentration ranging from 0.3-0.000003 μM. After 5 days' compound exposure, 16 μL of CellTiter-GLo (Promega, Madison Wis.) was added to the cells the relative luminescence units (RLUs) of each well was determined CellTiter-Glo added to 32 μL of medium without cells was used to obtain a background value. The Percent viability of each sample was determined as follows: (RLU sample-RLU background/RLU untreated cells-RLU background)×100=% viability.

ER-α in MCF-7 cells = biological target: T1, ER-α in MCF-7 cells (Homo sapiens, UniProt P03372); test: Breast cancer cell ER-α in cell western assay (SP1); assay type: cell-based; parameters: endogenous in cells; host or cells: MCF-7; conditions: 4 or 24 hr post compound addition; for Emax: MCF7, SP1 antibody, read-out: ER-α In Cell Western Assay (SP1) Max Response; for DC50: SP1 antibody, read-out: ER-α In Cell Western Assay (SP1) IC50
T1 sequence (P03372 1-595): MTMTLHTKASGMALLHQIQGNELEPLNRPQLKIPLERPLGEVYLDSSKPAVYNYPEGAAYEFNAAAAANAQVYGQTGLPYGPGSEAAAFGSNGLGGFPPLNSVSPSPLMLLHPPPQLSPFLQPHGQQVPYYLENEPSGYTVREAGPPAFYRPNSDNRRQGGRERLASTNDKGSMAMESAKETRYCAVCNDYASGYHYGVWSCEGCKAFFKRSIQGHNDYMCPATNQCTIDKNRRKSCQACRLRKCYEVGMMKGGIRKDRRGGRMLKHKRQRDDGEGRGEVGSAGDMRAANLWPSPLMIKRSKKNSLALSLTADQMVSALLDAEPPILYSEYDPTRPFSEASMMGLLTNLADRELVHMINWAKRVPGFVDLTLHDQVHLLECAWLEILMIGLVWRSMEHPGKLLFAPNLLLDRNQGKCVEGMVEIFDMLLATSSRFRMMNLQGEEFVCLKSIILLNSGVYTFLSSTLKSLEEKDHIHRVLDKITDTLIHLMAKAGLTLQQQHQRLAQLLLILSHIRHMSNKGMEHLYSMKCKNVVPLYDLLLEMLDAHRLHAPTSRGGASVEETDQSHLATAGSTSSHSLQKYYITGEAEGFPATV
Procedure: MCF-7 cells were adjusted to a concentration of 200,000 cells per mL in RPMI containing 10% charcoal-stripped FBS and 20 mM HEPES. 16 microliters of the cell suspension (3200 cells) was added to each well of a poly-D-lysine 384 well plate, and the cells were incubated overnight to allow the cells to adhere. The following day an eleven point, serial semilog dilution of each compound was added to the cells in 16 μL at a final concentration ranging from 0.3-0.000003 μM. At 4 or 24 hr post compound addition, the cells were fixed (10% formalin in PBS) for 20 minutes. Cells were permeablized in PBS 0.1% Triton and blocked with LICOR blocking buffer (50 μl/well, 90°). The wells were then incubated overnight at 4° C. with SP1 rabbit monoclonal Ab (Thermo Scientific) diluted 1:1000 in LICOR blocking buffer/0.1% Tween-20. Wells which were treated with blocking buffer with Tween but no antibody were used as a background control. Wells were washed with 0.1% Tween-20/PBS and then incubated in goat anti-rabbit IRDye™ 800CW (LICOR Inc.; 1:1000) and DRAQ5 DNA dye (1:2000 for 2 mM stock) diluted in LICOR blocking buffer containing 0.1% Tween-20 and 0.01% SDS for 60 minutes. Cells were washed (50 μl/well, 5′ each) in 0.1% Tween-20/PBS. Plates were scanned on a LICOR Odyssey infrared imaging system. Integrated intensities in the 800 nm channel and 700 nm channel were measured to determine levels of ER and DNA respectively. Percent ER levels were determined as follows: (Integrated intensity 800 nm sample/integrated intensity 700 nm sample)/(Integrated intensity 800 nm untreated cells/integrated intensity 700 nm untreated cells)×100=% ER levels.

O=C(O)/C=C/c1ccc(/C(=C(\c2ccccc2)C2CC2)c2cccc3[nH]ncc23)cc1 [Compound 70, (E)-3-(4-((E)-2-Cyclopropyl-1-(1H-indazol-4-yl)-2-phenylvinyl)phenyl)acrylic acid]
MCF7 Viability Assay Max Response (MCF-7 cells): ++ (++ = a single % value ≧ 40%)
IC50 (MCF-7 cells): ≤ 100 nM
Emax (ER-α in MCF-7 cells): ≥ 40%
DC50 (ER-α in MCF-7 cells): ≤ 100 nM

O=C(O)/C=C/c1ccc(/C(=C(\c2ccccc2Cl)C2CC2)c2cccc3[nH]ncc23)cc1 [Compound 71, (E)-3-(4-((E)-2-(2-Chlorophenyl)-2-cyclopropyl-1-(1H-indazol-4-yl)vinyl)phenyl)acrylic acid]
MCF7 Viability Assay Max Response (MCF-7 cells): ++ (++ = a single % value ≧ 40%)
IC50 (MCF-7 cells): ≤ 100 nM
Emax (ER-α in MCF-7 cells): ≥ 40%
DC50 (ER-α in MCF-7 cells): ≤ 100 nM

CC/C(=C(/c1ccc(/C=C/C(=O)O)cc1)c1ccc2[nH]nnc2c1)c1ccc(F)cc1Cl [Compound 72, (E)-3-(4-((E)-1-(1H-Benzo[d][1,2,3]triazol-5-yl)-2-(2-chloro-4-fluorophenyl)but-1-en-1-yl)phenyl)acrylic acid]
MCF7 Viability Assay Max Response (MCF-7 cells): ++ (++ = a single % value ≧ 40%)
IC50 (MCF-7 cells): ≤ 100 nM
Emax (ER-α in MCF-7 cells): ≥ 40%
DC50 (ER-α in MCF-7 cells): ≤ 100 nM

O=C(O)/C=C/c1ccc(/C(=C(\c2ccc(F)cc2Cl)C2CC2)c2cccc3[nH]ncc23)cc1 [Compound 73, (E)-3-(4-((E)-2-(2-Chloro-4-fluorophenyl)-2-cyclopropyl-1-(1H-indazol-4-yl)vinyl)phenyl)acrylic acid]
MCF7 Viability Assay Max Response (MCF-7 cells): ++ (++ = a single % value ≧ 40%)
IC50 (MCF-7 cells): ≤ 100 nM
Emax (ER-α in MCF-7 cells): ≥ 40%
DC50 (ER-α in MCF-7 cells): ≤ 100 nM

CC/C(=C(/c1ccc(/C=C/C(=O)O)cc1)c1ccc2[nH]c(=O)sc2c1)c1ccccc1 [Compound 75, (E)-3-(4-((E)-1-(2-Oxo-2,3-dihydrobenzo[d]thiazol-6-yl)-2-phenylbut-1-en-1-yl)phenyl)acrylic acid]
MCF7 Viability Assay Max Response (MCF-7 cells): ++ (++ = a single % value ≧ 40%)
IC50 (MCF-7 cells): > 100 nM
Emax (ER-α in MCF-7 cells): ≥ 40%

CC/C(=C(/c1ccc(/C=C/C(=O)O)cc1)c1cc2cn[nH]c2cn1)c1ccccc1 [Compound 81, (E)-3-(4-((E)-2-Phenyl-1-(1H-pyrazolo[3,4-c]pyridin-5-yl)but-1-en-1-yl)phenyl)acrylic acid]
MCF7 Viability Assay Max Response (MCF-7 cells): ++ (++ = a single % value ≧ 40%)
IC50 (MCF-7 cells): > 100 nM
Emax (ER-α in MCF-7 cells): ≥ 40%
DC50 (ER-α in MCF-7 cells): > 100 nM

CC/C(=C(/c1ccc(/C=C/C(=O)O)cc1)c1ccc2[nH]cnc2c1)c1ccccc1 [Compound 83, (E)-3-(4-((E)-1-(1H-Benzo[d]imidazol-5-yl)-2-phenylbut-1-en-1-yl)phenyl)acrylic acid]
MCF7 Viability Assay Max Response (MCF-7 cells): ++ (++ = a single % value ≧ 40%)
IC50 (MCF-7 cells): > 100 nM
Emax (ER-α in MCF-7 cells): ≥ 40%

CC/C(=C(/c1ccc(/C=C/C(=O)O)cc1)c1cc(F)cc2[nH]ncc12)c1ccccc1 [Compound 86, (E)-3-(4-((E)-1-(6-Fluoro-1H-indazol-4-yl)-2-phenylbut-1-en-1-yl)phenyl)acrylic acid]
MCF7 Viability Assay Max Response (MCF-7 cells): ++ (++ = a single % value ≧ 40%)
IC50 (MCF-7 cells): ≤ 100 nM
Emax (ER-α in MCF-7 cells): ≥ 40%
DC50 (ER-α in MCF-7 cells): ≤ 100 nM

CC/C(=C(/c1ccc(/C=C/C(=O)O)cc1)c1cccc2[nH]nnc12)c1ccccc1 [Compound 88, (E)-3-(4-((E)-1-(1H-Benzo[d][1,2,3]triazol-4-yl)-2-phenylbut-1-en-1-yl)phenyl)acrylic acid]
MCF7 Viability Assay Max Response (MCF-7 cells): ++ (++ = a single % value ≧ 40%)
IC50 (MCF-7 cells): > 100 nM
Emax (ER-α in MCF-7 cells): ≥ 40%
DC50 (ER-α in MCF-7 cells): > 100 nM

CC/C(=C(/c1ccc(/C=C/C(=O)O)cc1)c1cccc2[nH]nnc12)c1ccc(F)cc1Cl [Compound 89, (E)-3-(4-((E)-1-(1H-Benzo[d][1,2,3]triazol-4-yl)-2-(2-chloro-4-fluorophenyl)but-1-en-1-yl)phenyl)acrylic acid]
MCF7 Viability Assay Max Response (MCF-7 cells): ++ (++ = a single % value ≧ 40%)
IC50 (MCF-7 cells): ≤ 100 nM
Emax (ER-α in MCF-7 cells): ≥ 40%
DC50 (ER-α in MCF-7 cells): ≤ 100 nM

CC/C(=C(/c1ccc(/C=C/C(=O)O)cc1)c1ccc2c[nH]c(=O)cc2c1)c1ccccc1 [Compound 90, (E)-3-(4-((E)-1-(3-Oxo-2,3-dihydroisoquinolin-6-yl)-2-phenylbut-1-en-1-yl)phenyl)acrylic acid]
MCF7 Viability Assay Max Response (MCF-7 cells): ++ (++ = a single % value ≧ 40%)
IC50 (MCF-7 cells): > 100 nM
Emax (ER-α in MCF-7 cells): ≥ 40%
DC50 (ER-α in MCF-7 cells): > 100 nM

CC/C(=C(/c1ccc(/C=C/C(=O)O)cc1)c1cc(F)c2[nH]ccc2c1)c1ccccc1 [Compound 92, (E)-3-(4-((E)-1-(7-Fluoro-1H-indol-5-yl)-2-phenylbut-1-en-1-yl)phenyl)acrylic acid]
MCF7 Viability Assay Max Response (MCF-7 cells): ++ (++ = a single % value ≧ 40%)
IC50 (MCF-7 cells): ≤ 100 nM
Emax (ER-α in MCF-7 cells): ≥ 40%
DC50 (ER-α in MCF-7 cells): ≤ 100 nM

CC/C(=C(/c1ccc(/C=C/C(=O)O)cc1)c1ccc2[nH]ncc2c1)c1cccc2occc12 [Compound 96, (E)-3-(4-((E)-2-(Benzofuran-4-yl)-1-(1H-indazol-5-yl)but-1-en-1-yl)phenyl)acrylic acid]
MCF7 Viability Assay Max Response (MCF-7 cells): ++ (++ = a single % value ≧ 40%)
IC50 (MCF-7 cells): ≤ 100 nM
Emax (ER-α in MCF-7 cells): ≥ 40%
DC50 (ER-α in MCF-7 cells): ≤ 100 nM

CC/C(=C(/c1ccc(/C=C/C(=O)O)cc1)c1ccc2c(=O)[nH]ccc2c1)c1ccccc1 [Compound 97, (E)-3-(4-((E)-1-(1-Oxo-1,2-dihydroisoquinolin-6-yl)-2-phenylbut-1-en-1-yl)phenyl)acrylic acid]
MCF7 Viability Assay Max Response (MCF-7 cells): ++ (++ = a single % value ≧ 40%)
IC50 (MCF-7 cells): ≤ 100 nM
Emax (ER-α in MCF-7 cells): ≥ 40%
DC50 (ER-α in MCF-7 cells): > 100 nM

CC/C(=C(/c1ccc(/C=C/C(=O)O)cc1)c1ccc2c(c1)CCC(=O)N2)c1ccccc1 [Compound 100, (E)-3-(4-((E)-1-(2-Oxo-1,2,3,4-tetrahydroquinolin-6-yl)-2-phenylbut-1-en-1-yl)phenyl)acrylic acid]
MCF7 Viability Assay Max Response (MCF-7 cells): ++ (++ = a single % value ≧ 40%)
IC50 (MCF-7 cells): > 100 nM
Emax (ER-α in MCF-7 cells): ≥ 40%
DC50 (ER-α in MCF-7 cells): > 100 nM

CC/C(=C(/c1ccc(/C=C/C(=O)O)cc1)c1ccc2c(c1)COC(=O)N2)c1ccccc1 [Compound 101, (E)-3-(4-((E)-1-(2-Oxo-2,4-dihydro-1H-benzo[d][1,3]oxazin-6-yl)-2-phenylbut-1-en-1-yl)phenyl)acrylic acid]
MCF7 Viability Assay Max Response (MCF-7 cells): ++ (++ = a single % value ≧ 40%)
IC50 (MCF-7 cells): > 100 nM
Emax (ER-α in MCF-7 cells): ≥ 40%
DC50 (ER-α in MCF-7 cells): > 100 nM

CC/C(=C(/c1ccc(/C=C/C(=O)O)cc1)c1cccc2[nH]c(=O)ccc12)c1ccccc1 [Compound 102, (E)-3-(4-((E)-1-(2-Oxo-1,2-dihydroquinolin-5-yl)-2-phenylbut-1-en-1-yl)phenyl)acrylic acid]
MCF7 Viability Assay Max Response (MCF-7 cells): + (+ = a single % value < 40%)
IC50 (MCF-7 cells): > 100 nM
Emax (ER-α in MCF-7 cells): ≥ 40%
DC50 (ER-α in MCF-7 cells): > 100 nM

CC/C(=C(/c1ccc(/C=C/C(=O)O)cc1)c1ccc2c(c1)SCC(=O)N2)c1ccccc1 [Compound 103, (E)-3-(4-((E)-1-(3-Oxo-3,4-dihydro-2H-benzo[b][1,4]thiazin-7-yl)-2-phenylbut-1-en-1-yl)phenyl)acrylic acid]
MCF7 Viability Assay Max Response (MCF-7 cells): ++ (++ = a single % value ≧ 40%)
IC50 (MCF-7 cells): > 100 nM
Emax (ER-α in MCF-7 cells): ≥ 40%
DC50 (ER-α in MCF-7 cells): > 100 nM
